SMILES	melting point [°C]
CCOC(=O)c1c(C)nc2c(cnn2CC)c1-c1ccnc(Cl)c1 [Example 3, Ethyl 4-(2-chloro-4-pyridyl)-1-ethyl-6-methyl-1H-pyrazolo[3,4-b]pyridine-5-carboxylate]	109 to 110
CCC(CC)c1nc2c(cnn2CC)c(-c2cncc(C)c2)c1CCC(=O)O [Example 346, 3-[1-Ethyl-6-(1-ethylpropyl)-4-(5-methyl-3-pyridyl)-1H-pyrazolo[3,4-b]pyridin-5-yl]propanoic acid]	144 to 145
Cc1cncc(-c2c(CCC(=O)O)c(C)nc3c2cnn3C)c1 [Example 97, 3-[1,6-Dimethyl-4-(5-methyl-3-pyridyl)-1H-pyrazolo[3,4-b]pyridin-5-yl]propanoic acid]	205 to 207
CCn1ncc2c(-c3cncc(C)c3)c(CCC(=O)O)c(COCC3CCCCC3)nc21 [Example 96, 3-[6-[(Cyclohexylmethoxy)methyl]-1-ethyl-4-(5-methyl-3-pyridyl)-1H-pyrazolo[3,4-b]pyridin-5-yl]propanoic acid]	183 to 184
CCn1ncc2c(-c3cncc(C)c3)c(CCC(=O)O)c(CC(C)(C)C)nc21 [Example 349, 3-[6-(2,2-Dimethylpropyl)-1-ethyl-4-(5-methyl-3-pyridyl)-1H-pyrazolo[3,4-b]pyridin-5-yl]propanoic acid]	221 to 223
CCC(CC)c1nc2c(cnn2CC)c(-c2cncc(C)c2)c1/C=C/C(=O)O [Example 201, (2E)-3-[1-Ethyl-6-(1-ethylpropyl)-4-(5-methyl-3-pyridyl)-1H-pyrazolo[3,4-b]pyridin-5-yl]acrylic acid]	197 to 199
CCn1ncc2c(-c3cncc(C)c3)c(/C=C/C(=O)O)c(CC(C)(C)C)nc21 [Example 236, (2E)-3-[6-(2,2-Dimethylpropyl)-1-ethyl-4-(5-methyl-3-pyridyl)-1H-pyrazolo[3,4-b]pyridin-5-yl]acrylic acid]	216 to 217.5
CCn1ncc2c(-c3cncc(C)c3)c(/C=C/C(=O)O)c(COC)nc21 [Example 82, (2E)-3-[1-ethyl-6-(methoxymethyl)-4-(5-methyl-3-pyridyl)-1H-pyrazolo[3,4-b]pyridin-5-yl]acrylic acid]	195 to 196
CCn1ncc2c(-c3cncc(Br)c3)c(CCC(=O)O)c(C)nc21 [Example 93, 3-[4-(5-Bromo-3-pyridyl)-1-ethyl-6-methyl-1H-pyrazolo[3,4-b]pyridin-5-yl]propanoic acid]	178 to 179.5
CCn1ncc2c(-c3cncc(Br)c3)c(/C=C/C(=O)O)c(COCC3CC3)nc21 [Example 88, (2E)-3-{4-(5-Bromo-3-pyridyl)-6-[(cyclopropylmethoxy)methyl]-1-ethyl-1H-pyrazolo[3,4-b]pyridin-5-yl}acrylic acid]	183 to 184
CCn1ncc2c(-c3cncc(Br)c3)c(/C=C/C(=O)O)c(C(C)C)nc21 [Example 225, (2E)-3-[4-(5-Bromo-3-pyridyl)-1-ethyl-6-isopropyl-1H-pyrazolo[3,4-b]pyridin-5-yl]acrylic acid]	234 to 235
CCn1ncc2c(-c3cncc(Br)c3)c(/C=C/C(=O)O)c(COC)nc21 [Example 226, (2E)-3-[4-(5-Bromo-3-pyridyl)-1-ethyl-6-(methoxymethyl)-1H-pyrazolo[3,4-b]pyridin-5-yl]acrylic acid]	180 to 182
CCn1ncc2c(-c3cncc(C)c3)c(CCC(=O)O)c(COC)nc21 [Example 92, 3-[1-Ethyl-6-(methoxymethyl)-4-(5-methyl-3-pyridyl)-1H-pyrazolo[3,4-b]pyridin-5-yl]propanoic acid]	154 to 155
Cc1cncc(-c2c(/C=C/C(=O)O)c(C)nc3c2cnn3C)c1 [Example 90, (2E)-3-[1,6-Dimethyl-4-(5-methyl-3-pyridyl)-1H-pyrazolo[3,4-b]pyridin-5-yl]acrylic acid]	269 to 272
CCn1ncc2c(-c3cncc(Cl)c3)c(/C=C/C(=O)O)c(COC)nc21 [Example 231, (2E)-3-[4-(5-chloro-3-pyridyl)-1-ethyl-6-(methoxymethyl)-1H-pyrazolo[3,4-b]pyridin-5-yl]acrylic acid]	187 to 188
CCn1ncc2c(-c3ccnc(C)c3)c(/C=C/C(=O)O)c(C(C)C)nc21 [Example 242, (2E)-3-[1-Ethyl-6-isopropyl-4-(2-methyl-4-pyridyl)-1H-pyrazolo[3,4-b]pyridin-5-yl]acrylic acid]	260 to 262.5
CCn1ncc2c(-c3cccc(Cl)c3)c(/C=C/C(=O)O)c(COC)nc21 [Example 191, (2E)-3-[4-(3-Chlorophenyl)-1-ethyl-6-(methoxymethyl)-1H-pyrazolo[3,4-b]pyridin-5-yl]acrylic acid]	234 to 235
CCOCc1nc2c(cnn2CC)c(-c2cncc(C)c2)c1/C=C/C(=O)O [Example 234, (2E)-3-[6-(Ethoxymethyl)-1-ethyl-4-(5-methyl-3-pyridyl)-1H-pyrazolo[3,4-b]pyridin-5-yl]acrylic acid]	187 to 188

Continued, values first:

melting point [°C]	SMILES
255 to 257	CCn1ncc2c(-c3cncc(C)c3)c(/C=C/C(=O)O)c(C3CCCCC3)nc21 [Example 190, (2E)-3-[6-Cyclohexyl-1-ethyl-4-(5-methyl-3-pyridyl)-1H-pyrazolo[3,4-b]pyridin-5-yl]acrylic acid]
205 to 207	CCn1ncc2c(-c3cncc(C)c3)c(CCC(=O)O)c(C3CC3)nc21 [Example 343, 3-[6-Cyclopropyl-1-ethyl-4-(5-methyl-3-pyridyl)-1H-pyrazolo[3,4-b]pyridin-5-yl]propanoic acid]
> 250	CCn1ncc2c(-c3ccnc(Cl)c3)c(/C=C/C(=O)O)c(-c3ccccc3)nc21 [Example 204, (2E)-3-[4-(2-Chloro-4-pyridyl)-1-ethyl-6-phenyl-1H-pyrazolo[3,4-b]pyridin-5-yl]acrylic acid]
221 to 222	CCn1ncc2c(-c3cncc(C)c3)c(/C=C/C(=O)O)c(C3CC3)nc21 [Example 214, (2E)-3-[6-Cyclopropyl-1-ethyl-4-(5-methyl-3-pyridyl)-1H-pyrazolo[3,4-b]pyridin-5-yl]acrylic acid]
247 to 248	CCn1ncc2c(-c3cncc(C)c3)c(/C=C/C(=O)O)c(C(C)C)nc21 [Example 212, (2E)-3-[1-Ethyl-6-isopropyl-4-(5-methyl-3-pyridyl)-1H-pyrazolo[3,4-b]pyridin-5-yl]acrylic acid]
203 to 204	CCn1ncc2c(-c3cncc(C)c3)c(C(=O)NCc3ccc(OC)cc3)c(-c3ccccc3)nc21 [Example 65, 1-ethyl-N-(4-methoxybenzyl)-4-(5-methyl-3-pyridyl)-6-phenyl-1H-pyrazolo[3,4-b]pyridine-5-carboxamide]
187 to 189	CCn1ncc2c(-c3cncc(C)c3)c(/C=C/C(=O)O)c(COCC3CC3)nc21 [Example 87, (2E)-3-[6-[(Cyclopropylmethoxy)methyl]-1-ethyl-4-(5-methyl-3-pyridyl)-1H-pyrazolo[3,4-b]pyridin-5-yl]acrylic acid]
235 to 237	CCn1ncc2c(-c3cncc(C)c3)c(CCC(=O)O)c(-c3ccccc3)nc21 [Example 98, 3-[1-Ethyl-4-(5-methyl-3-pyridyl)-6-phenyl-1H-pyrazolo[3,4-b]pyridin-5-yl]propanoic acid]
170 to 172	CCC(CC)NC(=O)c1c(-c2ccccc2)nc2c(cnn2CC)c1-c1cncc(C)c1 [Example 245, 1-Ethyl-N-(1-ethylpropyl)-4-(5-methyl-3-pyridyl)-6-phenyl-1H-pyrazolo[3,4-b]pyridine-5-carboxamide]
239 to 241	CCn1ncc2c(-c3cncc(C)c3)c(/C=C/C(=O)O)c(C)nc21 [Example 85, (2E)-3-[1-Ethyl-6-methyl-4-(5-methyl-3-pyridyl)-1H-pyrazolo[3,4-b]pyridin-5-yl]acrylic acid]
242 to 244	CCn1ncc2c(-c3cncc(Cl)c3)c(/C=C/C(=O)O)c(-c3ccccc3)nc21 [Example 213, (2E)-3-[4-(5-Chloro-3-pyridyl)-1-ethyl-6-phenyl-1H-pyrazolo[3,4-b]pyridin-5-yl]acrylic acid]
209 to 210	CCn1ncc2c(-c3cncc(C)c3)c(CCC(=O)O)c(C#N)nc21 [Example 100, 3-[6-Cyano-1-ethyl-4-(5-methyl-3-pyridyl)-1H-pyrazolo[3,4-b]pyridin-5-yl]propanoic acid]
197 to 199	CCn1ncc2c(-c3cncc(C)c3)c(C(=O)NCC3CCCCC3)c(-c3ccccc3)nc21 [Example 247, N-(Cyclohexylmethyl)-1-ethyl-4-(5-methyl-3-pyridyl)-6-phenyl-1H-pyrazolo[3,4-b]pyridine-5-carboxamide]
203 to 205	CCn1ncc2c(-c3cncc(C)c3)c(CCC(=O)O)c(C(C)C)nc21 [Example 194, 3-[1-Ethyl-6-isopropyl-4-(5-methyl-3-pyridyl)-1H-pyrazolo[3,4-b]pyridin-5-yl]propanoic acid]
179 to 181	CCn1ncc2c(-c3cncc(C)c3)c(CCC(=O)O)c(C)nc21 [Example 94, 3-[1-Ethyl-6-methyl-4-(5-methyl-3-pyridyl)-1H-pyrazolo[3,4-b]pyridin-5-yl]propanoic acid]
255 to 258	CCn1ncc2c(-c3ccc(Cl)nc3)c(/C=C/C(=O)O)c(-c3ccccc3)nc21 [Example 208, (2E)-3-[4-(6-Chloro-3-pyridyl)-1-ethyl-6-phenyl-1H-pyrazolo[3,4-b]pyridin-5-yl]acrylic acid]
269 to 270	CCn1ncc2c(-c3cncc(C)c3)c(C(=O)NC3Cc4ccccc4C3)c(-c3ccccc3)nc21 [Example 66, N-(2,3-Dihydro-1H-inden-2-yl)-1-ethyl-4-(5-methyl-3-pyridyl)-6-phenyl-1H-pyrazolo[3,4-b]pyridine-5-carboxamide]
187 to 188	CCn1ncc2c(-c3ccc(Cl)s3)c(/C=C/C(=O)O)c(-c3ccccc3)nc21 [Example 207, (2E)-3-[4-(5-Chloro-2-thienyl)-1-ethyl-6-phenyl-1H-pyrazolo[3,4-b]pyridin-5-yl]acrylic acid]

— US7459451B2, “Pyrazolopyridine derivatives” (Astellas Pharma Inc., priority 2004, dated 2008)
